{"source": "patent US8642801B2", "about": "(BHI Limited Partnership, priority 2003, dated 2014)", "test_system": "Aβ40 and Aβ42 peptides in plasma and brain of TgCRND8 mice", "assay": "Short term treatment in adult transgenic CRND8 mice overexpressing βAPP: Aβ levels in plasma and brain by ELISA", "assay_type": "in vivo, Mouse", "details": "after 14 and 28 days of treatment, TgCRND8 mice", "method_in_brief": "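TgCRND8 mice (B6C3F1 backcross, ~11 weeks at treatment start) given short-term treatment; Aβ40 and Aβ42 in plasma and soluble/insoluble brain fractions measured by fluorometric sandwich ELISA (ex 460/em 560 nm). Levels normalized to vehicle (water or methylcellulose) groups and scored as +/− symbols by effect strength.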"}
{"smiles": "CC(C)(C)NCCCS(=O)(=O)O", "note": "[BX, 3-(t-butyl)amino-1-propanesulfonic acid]", "values": [{"measurement": "levels of Aβ peptides in the plasma", "result": "significant increase"}]}
